We go through 15 molecules from patent US9376380B2 (University of Pittsburgh—Of the Commonwealth System of …, priority 2011, dated 2016).

Series [1] concerns peripheral blood mononuclear cell (PBMC). In words: Cytotoxicity on normal human PBMC, trypan blue exclusion. The series is classed as cell-based. Conditions: 3 days. The source says: Peripheral blood was drawn in a heparinized syringe from healthy fasting volunteers who had been without medication for at least 2 weeks. The peripheral blood mononuclear cell (PBMC) fraction was obtained by gradient centrifugation over Ficoll-Hypaque (Amersham), as described by Feng, R. et al. S. KD5170, a novel mercaptoketone-based histone deacetylase inhibitor, exerts antimyeloma effects by DNA damage and mitochondrial signaling, Mol. Cancer Ther. 2008, 7, 1494-1505. […] The compounds in a stock solution (50 mMin DMSO) were diluted with the culture medium to application conditions and further used for the treatment of PBMC for 3 days. The final DMSO concentrations are always 0.02%. After treatment for 72 h, cell viability was determined using trypan blue exclusion assay. These human cell studies conformed to the guidelines of the Institutional Review Board of the University of Pittsburgh, Pa.

Series [2] concerns RAW 264.7 cells. In words: RANKL-induced osteoclast differentiation on RAW 264.7 cells (TRAP). The series is classed as cell-based, mouse. Conditions: for inhibition activity at low dose / inhibition at 1 µM: 1 μM; for inhibition at 1 µM / inhibition at 0.1 µM / inhibition at 10 µM: Mus musculus, RAW264.7, read-out: inhibition rate of osteoclast formation; for inhibition of RANKL-induced osteoclastogenesis, dose dependence: RANKL 15 ng/mL, 5 days. An excerpt: FIG. 5. Anti-osteoclastogenesis activity of exemplary compounds. […] The bar indicates the SD. (B) Photographs of cells in the test of compound 93 (original magnification 100×).

In series [3] the target is CB2 receptor (Homo sapiens, UniProt P34972). In words: [3H]CP-55,940 radioligand competition binding, CB2. On the set-up: host or cells: cell membrane preparations. Conditions: for SI: selectivity index for CB2: Ki(CB1)/Ki(CB2) ratio. In general terms: Loss of bound radioactivity is the signal in a displacement assay; it reports binding, not function.
CB2 receptor, sequence (P34972 whole entry): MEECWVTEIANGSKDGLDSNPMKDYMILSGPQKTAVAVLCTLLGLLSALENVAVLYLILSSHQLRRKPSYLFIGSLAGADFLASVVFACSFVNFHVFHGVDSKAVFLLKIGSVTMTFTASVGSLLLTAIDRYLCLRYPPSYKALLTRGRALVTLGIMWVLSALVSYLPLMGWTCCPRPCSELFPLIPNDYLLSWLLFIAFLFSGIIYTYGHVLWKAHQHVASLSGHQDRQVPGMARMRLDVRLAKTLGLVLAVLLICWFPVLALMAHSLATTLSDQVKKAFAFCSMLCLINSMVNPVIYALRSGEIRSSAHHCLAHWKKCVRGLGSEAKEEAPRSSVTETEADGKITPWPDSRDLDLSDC
Protocol: (§1) Briefly, the bioassay is carried out using the Perkin Elmer 96-well Top Counter. […] The procedure is as follows.
(§2) In competition binding experiments, the tested compound dilutions are carried out in duplicate in TME buffer (25 mM Tris, 5 mM MgCl2, 1 mM EDTA) containing 0.1% (w/v) fatty acid free bovine serum albumin (BSA), pH 7.4. […] TME buffer and cell membrane preparations expressing CB receptors (5 μg per well) are added to a final volume of 200 μL. […] After the binding suspensions are incubated at 30° C. for 1 hr, the reaction is terminated by rapid filtration through microfiltration plates (Unifilter GF/B filterplate, PerkinElmer), followed by 5 washes with ice cold TME buffer containing 0.1% BSA on a Packard Filtermate Harvester (PerkinElmer). The plates are then dried overnight and 30 μl MicroScint 0 scintillation cocktail is added to each well of the dried filter plates. The bound radioactivity is then counted using a Perkin Elmer 96-well TopCounter. […] This assay is used for determination of the binding affinity parameters (Ki) of ligand-receptor interactions for the CB receptor.
In series [4] the target is T1, CB1 receptor (Homo sapiens, UniProt P21554).
T1 construct: host or cells: cell membrane preparations
T1 sequence (P21554 whole entry): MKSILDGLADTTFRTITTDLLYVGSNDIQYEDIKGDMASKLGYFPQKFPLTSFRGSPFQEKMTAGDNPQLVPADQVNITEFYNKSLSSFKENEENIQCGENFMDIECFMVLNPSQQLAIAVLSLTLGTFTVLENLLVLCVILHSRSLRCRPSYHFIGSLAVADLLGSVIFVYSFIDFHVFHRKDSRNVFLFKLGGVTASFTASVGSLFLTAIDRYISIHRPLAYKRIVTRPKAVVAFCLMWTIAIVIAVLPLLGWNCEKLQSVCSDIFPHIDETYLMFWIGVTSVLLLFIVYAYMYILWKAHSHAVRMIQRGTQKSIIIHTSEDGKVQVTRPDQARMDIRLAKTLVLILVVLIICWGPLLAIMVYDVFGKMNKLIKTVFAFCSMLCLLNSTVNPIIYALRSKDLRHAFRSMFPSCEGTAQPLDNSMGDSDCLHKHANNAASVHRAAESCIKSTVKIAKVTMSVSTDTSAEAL
In words: [3H]CP-55,940 radioligand competition binding, CB1.
Protocol: as §1, §2

The subject of series [5] is Human MM cell U266. In words: [3H]-thymidine uptake cell proliferation assay, U266. The series is classed as cell-based. Conditions: U266, 0-10 μmol/L, 48 h. Here is the method:
FIG. 2. Inhibitory effects of CB2 ligands on human MM cell growth. Human MM cell U266 (3×10^4 cells per well in 96-well plate) was exposed to the known CB2 ligands (A) or PAM (B) at indicated concentrations (0-10 μmol/L) for 48 h. Cell proliferation was measured by [^3H]-thymidine uptake assay as described in Materials and Methods. (C) U266 cells (3×10^4 per well in 96-well plate) were treated with PAM at indicated doses for 48 h. Cell viability and the viable cell number per well were determined using trypan blue exclusion assay. (D) Human chemoresistant myeloma cell lines MM.1R (dexamethasone), RPMI-8226/LR5 (melphalan) and their respective parent cells MM.1S and RPMI-8226 were exposed to PAM for 48 h. Cell proliferation was measured by ^3H-thymidine incorporation. The data presented are the mean±SD of at least 3 independent measurements. (E) [S^35]-GTPγS binding assay of different ligands on human CB2 receptor expressed in CHO cells.
A tritiated thymidine incorporation assay was carried out to investigate the effects of CB2 ligands on cell proliferation. U266, RPMI-8226 (3×10^4 cells/well), MM.1 S cells (6×10^4 cells/well), and their resistant sublines were cultured in 96-well culture plates with or without drugs for 48 hours. DNA synthesis was measured by ^3H-thymidine uptake as described previously.

The mark [6] stands for this setting: [3H]CP-55,940 displacement, read-out: Ki (CB2).
[7] abbreviates: [3H]CP-55,940 displacement, read-out: Ki (CB1).

Like-named read-outs stand apart in the source and are kept apart here.

As to `CC(C)Oc1ccc(C(NC(=O)Cc2ccccc2)NC(=O)Cc2ccccc2)cc1` [Compound 12, N,N′-((4-isopropoxyphenyl)methylene)bis(2-phenylacetamide)], the “cell viability vs vehicle control” value in series [1] is on record as “not significantly affected”.

With `CCN(CC)c1ccc(CN(c2ccc(Cl)cc2)S(=O)(=O)c2ccc(OC)cc2)cc1` [Compound 84, N-(4-Chlorophenyl)-N-(4-(diethylamino)benzyl)-4-methoxybenzenesulfonamide], in series [2], the “inhibition activity at low dose” value was “good inhibition activity”; the inhibition at 1 µM was 97%; the “inhibition of RANKL-induced osteoclastogenesis, dose dependence” value (shortened to “inhibition … dose dependence”) is “dose-dependent manner”. Besides, the “SI: selectivity index for CB2” value in series [3] is >1,428. Besides, in series [3] (setting [6]), the Ki worked out at 0.014 µM. Further, the “effect on cell viability” value in series [1] (5 μM) is on record as “only slight effect on cell viability”. The “cell viability vs vehicle control” value in series [1] (1.25 and 2.5 μM) is reported as “not significantly affected”. In series [1] (5 and 10 μM), the “effects on cell viability” value is given as “only some effects on cell viability”. For the same molecule, in series [1], the “cell viability vs vehicle control” value is “not significantly affected”. In series [4] (setting [7]), the Ki was more than 20 µM.

Consider `CCN(CC)c1ccc(CN(c2ccc(C)cc2)S(=O)(=O)c2ccc(OC)cc2)cc1` [Compound 93, N-(4-(Diethylamino)benzyl)-4-methoxy-N-(p-tolyl)benzenesulfonamide], for which, in series [2], the “inhibition activity at low dose” value is “good inhibition activity”, the inhibition at 0.1 µM stood at 46%, the inhibition at 1 µM was found to be 97% and the inhibition at 10 µM is 100%. Moreover, in series [2], the “inhibition … dose dependence” value is reported as “dose-dependent manner”. Further, the “SI: selectivity index for CB2” value in series [3] turned out to be 2594. Further, in series [3] (setting [6]), the inhibition constant Ki was found to be 0.0005 µM. Besides, the “cell viability vs vehicle control” value in series [1] (1.25 and 2.5 μM) is given as “not significantly affected”. The “effects on cell viability” value in series [1] (5 and 10 μM) is “only some effects on cell viability”. Besides, in series [1], the “cell viability vs vehicle control” value is “not significantly affected”. Further, the Ki in series [4] (setting [7]) came to 1.3 µM.

Turning to `COc1ccc(C(=O)c2c(C)n(CCN3CCOCC3)c3cc(I)ccc23)cc1` [AM630], the “inhibition of DNA synthesis in MM cells” value in series [5] is reported as “dose dependent inhibition”.

Consider `CCCCCCC(C)(C)c1cc(OC)c([C@@H]2C=C(CO)[C@@H]3C[C@H]2C3(C)C)c(OC)c1` [Hu308], for which, in series [5], the “inhibition of DNA synthesis in MM cells” value is on record as “no effect”.

Consider `CC(C)c1ccc(C(NC(=O)Cc2ccccc2)NC(=O)Cc2ccccc2)cc1` [Compound 9, N,N′-((4-isopropylphenyl)methylene)bis(2-phenylacetamide)], for which, in series [1], the “cell viability vs vehicle control” value is listed as “not significantly affected”.

Regarding `CCN(CC)c1ccc(CN(c2ccc(Cl)cc2)S(=O)(=O)c2ccc(C)cc2)cc1` [Compound 85, N-(4-Chlorophenyl)-N-(4-(diethylamino)benzyl)-4-methylbenzenesulfonamide], the “SI: selectivity index for CB2” value in series [3] was 3.7. Also, the Ki in series [3] (setting [6]) came out at 0.037 µM; in series [4] (setting [7]) it was 0.137 µM.

`CCN(CC)c1ccc(CN(C23CC4CC(CC(C4)C2)C3)S(=O)(=O)c2cccc(C)c2)cc1` [Compound 61, N-((3s,5s,7s)-Adamantan-1-yl)-N-(4-(diethylamino)benzyl)-3-methylbenzenesulfonamide]: the “inhibition … dose dependence” value in series [2] is reported as “dose-dependent manner”. For the same molecule, the Ki in series [3] came to 0.019 µM; in series [4] (setting [7]), 8.22 µM.

Turning to `CCN(CC)c1ccc(CN(C23CC4CC(CC(C4)C2)C3)S(=O)(=O)c2ccc(Cl)cc2)cc1` [Compound 58, N-((3s,5s,7s)-Adamantan-1-yl)-4-chloro-N-(4-(diethylamino)benzyl)benzenesulfonamide], the “SI: selectivity index for CB2” value in series [3] came out at 11. Also, the Ki in series [3] (setting [6]) worked out at 0.173 µM; in series [4] (setting [7]) it was 2.03 µM.

For `CCN(CC)c1ccc(CN(C23CC4CC(CC(C4)C2)C3)S(=O)(=O)c2ccccc2)cc1` [Compound 56, N-((3s,5s,7s)-Adamantan-1-yl)-N-(4-(diethylamino)benzyl)benzenesulfonamide], the Ki is 0.084 µM in series [3] and 11 µM in series [4].

As to `O=C(Cc1ccccc1)NC(CCc1ccccc1)NC(=O)Cc1ccccc1` [Compound 45, N,N′-(3-Phenylpropane-1,1-diyl)bis(2-phenylacetamide)], the Ki in series [3] (setting [6]) was 9.32 µM; in series [4] (setting [7]), more than 20 µM.

With `CCN(CC)c1ccc(C(NC(=O)C=Cc2ccccc2)NC(=O)C=Cc2ccccc2)cc1` (stereo not shown) [Compound 48, N,N′-((4-(Diethylamino)phenyl)methylene)bis(3-phenylacrylamide)], the “SI: selectivity index for CB2” value in series [3] is recorded as more than 119. For the same molecule, the Ki was 0.167 µM in series [3] (setting [6]) and more than 20 µM in series [4] (setting [7]).

On to `CCN(CC)c1ccc(CN(c2ccc(Cl)cc2)S(=O)(=O)c2ccc(F)cc2)cc1` [Compound 82, N-(4-Chlorophenyl)-N-(4-(diethylamino)benzyl)-4-fluorobenzenesulfonamide], for which the “SI: selectivity index for CB2” value in series [3] was 15. Also, the Ki in series [3] (setting [6]) was 0.073 µM; in series [4] (setting [7]), 1.13 µM.

For `CCN(CC)c1ccc(CN(C(=O)C2CCCCC2)c2ccc(C)cc2)cc1` [Compound 99, N-(4-(Diethylamino)benzyl)-N-(p-tolyl)cyclohexanecarboxamide], the “SI: selectivity index for CB2” value in series [3] was found to be 0.9. For the same molecule, the Ki in series [3] (setting [6]) is 0.222 µM; in series [4] (setting [7]), 0.202 µM.

With `CCN(CC)c1ccc(C(NC(=O)Cc2ccccc2)NC(=O)Cc2ccccc2)cc1` [Compound 17, N,N′-((4-(diethylamino)phenyl)methylene)bis(2-phenylacetamide)], in series [2], the inhibition at 0.1 µM was 72%, the inhibition at 1 µM is 79% and the inhibition at 10 µM was 84%. Besides, the “SI: selectivity index for CB2” value in series [3] was more than 313. In series [3] (setting [6]), the Ki worked out at 0.064 µM. In series [1] (1 μM), the cytotoxic effects entry is listed as “did not show any cytotoxic effects”. Further, the “effects on cell viability” value in series [1] (10 μM) is “only slight effects on cell viability”. The “cell viability vs vehicle control” value in series [1] is reported as “not significantly affected”.

By inhibition is commonly meant the percentage by which the read-out fell short of the control. In general, Ki refers to a measure of affinity in units of concentration, obtained from inhibition or displacement.
